Columns and labels:
JIMT-1 cell line = experiment: Tumor volume in mice transplanted with JIMT-1 breast cancer cell line after PHI-101 and radiation; assay type: in vivo; details: JIMT-1 xenograft mice; PHI-101 20 mg/kg intraperitoneally 24 h and 3 h before and 24, 48, 72 h after 3 Gy 60Co γ-ray, repeated three times for 3 weeks; combination
Experimental: (§1) 6-week-old female Balb/c nu/nu mice (Orient Bio Inc.) and NOD SCID mice (Orient Bio Inc.) were prepared. The mice were acclimated for 1 week after purchase, and then tumor transplants were prepared. During the animal experiment, cages were replaced once a week, and drinking water and feed were often checked to ensure that they were always sufficiently supplied.
(§2) Each of the tumor cell lines shown in Table 1 below was cultured with DMEM (Dulbecco's Modified Eagle Medium) or RPMI-1640 in a 150-mm culture dish (SPL) under 5% CO2 at 37° C. Then, each tumor cell line was diluted to a density of 1×10^6 cells/100 μl using cold DPBS buffer (Welgene), and kept cold on ice until transplantation. […]
(§3) When each tumor cell line transplanted to the mice in Example 1-2 proliferated and the tumor begun to be visible, the lengths of the longest and shortest diameters of the tumor were measured using digital calipers (Mitutoyo). […]
(§4) The tumor volume was measured at intervals of 2 to 4 days, and was calculated using the following equation: V=½(L×W^2) • V=volume (mm^3) • L=length [mm], the longest diameter • W=width [mm], the shortest diameter
(§5) The measurement end time was determined based on when the average volume of the control tumor reached about 2,000 mm^3. The data of the measured tumor volume was first organized in Microsoft Excel, and plotted in GraphPad Prism. […]

FaDu cell line = experiment: Tumor volume in mice transplanted with FaDu head and neck cancer cell line after PHI-101 and radiation; assay type: in vivo; details: FaDu xenograft mice; PHI-101 20 mg/kg intraperitoneally 3 h before and 24, 48, 72, 96 h after 3 Gy 60Co γ-ray, repeated three times for 3 weeks; combination
Experimental: as §1, §2, §3, §4, §5

[1] = tested on: JIMT-1 breast cancer cell line; experiment: Clonogenic assay after PHI-101 and radiation, JIMT-1; assay type: cell-based; details: PHI-101 0.1, 0.2 or 0.5 μM, 0, 1, 2 or 3 Gy 3 hours after treatment, colonies after 10 days
Experimental: (§6) Whether the PHI-101 compound can act as a radiotherapy sensitizer for breast cancer was evaluated using clonogenic assay.
(§7) Specifically, each of the breast cancer cell lines shown in Table 2 below was added to DMEM medium in a 60-mm dish at a density of 300 cells, and treated with PHI-101 at a concentration of 0.1, 0.2 or 0.5 μM. As a control, DMSO was used.
(§8) 3 hours after PHI-101 treatment, the cells were irradiated with radiation having an intensity of 0, 1, 2 or 3 Gy. Next, the cells were cultured under 5% CO2 at 37° C. for 10 days, and then the formed colonies were stained with 0.4% crystal violet. Then, the colonies were counted and the surviving fraction of the cells was calculated. The results of calculating the surviving fraction were normalized and fitted to a linear-quadratic model using Kaleidagraph version 351 (Synergy Software, Reading, PA).

[2] = tested on: MDA-MB-468 breast cancer cell line; experiment: Clonogenic assay after PHI-101 and radiation, MDA-MB-468; assay type: cell-based; details: PHI-101 0.1, 0.2 or 0.5 μM, 0, 1, 2 or 3 Gy 3 hours after treatment, colonies after 10 days
Experimental: as §6, §7, §8

HCT116 cell line = experiment: Tumor volume in mice transplanted with HCT116 colorectal cancer cell line after PHI-101 and radiation; assay type: in vivo; details: HCT116 xenograft mice; PHI-101 20 mg/kg intraperitoneally 24 h and 3 h before and 24 h after 3 Gy X-ray, repeated twice at one-week interval; combination
Experimental: as §1, §2, §3, §4, §5

With `NC(=O)Nc1cc(C#Cc2cccc(F)c2)sc1C(=O)N[C@H]1CCCNC1` [PHI-101, (S)-5-((3-fluorophenyl)ethynyl)-N-(piperidin-3-yl)-3-ureido-thiophene-2-carboxamide] the “tumor volume inhibited compared to when only irradiation was performed” value (JIMT-1 cell line) was 20.53%, the “tumor volume reduced compared to that in the control group” value (“tumor volume reduced compared to that” for short) (JIMT-1 cell line) was 27.32% and the “tumor volume inhibited compared to when only irradiation was performed” value (FaDu cell line) was 29.16%. The “tumor volume reduced compared to that” value (FaDu cell line) was 37.50%, the “radiation sensitivity of the breast cancer cells (surviving fraction, linear-quadratic model)” value [1] was “increased in a concentration-dependent manner” and the “radiation sensitivity of the breast cancer cells (surviving fraction, linear-quadratic model)” value [2] was “increased in a concentration-dependent manner”. The “tumor volume inhibited compared to when only irradiation was performed” value (HCT116 cell line) was 36.60% and the “tumor volume reduced compared to that” value (HCT116 cell line) was 49.58%.
